This note sets out measurements from paper PMC8710804, “Stapled Anoplin as an Antibacterial Agent” (Frontiers in Microbiology, 2021).

“And” between values parts separate entries of the source, which are not always exact repeats. Equal entries are not always repeated. Where a SMILES comes first, the peptide text is derived from it. Bridges are numbered along the chain shown (N, C = ends). Where no end group is shown, it is not given here. [ ]: non-standard residue; d: D form. S5 = C=CCCC[C@](C)(N)C(=O)O

One series relates to sheep red blood cells. The experiment in a line: Hemolysis assay. The class given is cell-based. The note with it: sheep RBC in PBS pH 7.4, 37°C, 30 min, absorbance 405 nm, relative to 1% Triton-X-100, average of three independent measurements. How it is done: Sheep RBC (200 μl) were pelleted (3,500 rpm for 5 min), washed three times with PBS buffer (PBS 10 mM and 150 mM NaCl, pH 7.4). The cells were then diluted in PBS buffer (10 ml), divided into 50 parts into 1.5 ml tubes, and pelleted by centrifugation. Various concentrations of peptide solutions (200 μl) were added to the cells and incubated with shaking (165 rpm, 37°C) for 30 min. The cells were pelleted by centrifugation (3,500 rpm for 5 min). Then, 100 μl of supernatant from each tube was collected into a clear 96-well plate, and the absorbance of the released hemoglobin was measured with a plate reader spectrophotometer (Microplate Reader Biotek, Winooski, VT, United States) at 405 nm. Hemolysis was determined relative to the negative control (PBS) and the positive control (1% v/v Triton-X-100 that lyses 100% of RBC). The percentage of hemolysis was determined using the following equation:
where A0 is the absorbance intensity of the RBC in buffer (background), and A and A100 are the absorbance intensities of the RBS in the presence of peptides and Triton X-100, respectively.The tests were performed with duplicate samples, and the average values of three independent measurements were recorded.

The test system of series [1] is HEK 293 cells. Nature of the series: DAPI staining, confocal microscopy of cell morphology. It counts as cell-based, human. Conditions: HEK 293, 24 h, 64 μM of anoplin, 8–32 μM of derivatives (32 μM of anoplin[2-6]), confocal microscope. The method, then: 1 × 10^5 cells were seeded into coverslips and incubated for 24 h. The cells were then treated with anoplin (64 μM) or its derivatives (8–32 μM) for 24 h. Next, cells were washed with PBS and fixed in 4% PFA for 15 min at room temperature. After three washes with PBS, cells were stained with DAPI (4′,6-diamidino-2-phenylindole, dihydrochloride; Boster) for 5 min (as indicated in the instruction). Coverslips with cells were washed three times and mounted on a glass microscope slide using a Dako Fluorescence Mounting Medium. Images were acquired with Axio Imager Z2 LSM 700 Zeiss confocal microscope.

The subject of a further series is trypsin. The experiment in a line: Trypsin digestion assay. It counts as in vitro ADME. Conditions: trypsin:peptide 1:1333, 0.1 M NH4HCO3 pH 8.0, 37°C, RP-HPLC peak area, performed thrice; for stability against trypsin (comparison in words): up to 8 min. The method, then: 250 μl of peptide solution in ammonium bicarbonate buffer (0.1 M NH4HCO3, pH 8.0) and an appropriate amount of trypsin (Sigma-Aldrich) solution in water were incubated at 37°C with rapid shaking (600 rpm). Trypsin and peptides were mixed in the ratio (1:1333; [Luong et al., 2017b]). After 2, 4, 6, and 8 min of incubation, 60 μl of digestion mixture was taken and treated with 60 μl of a solution of 50% acetonitrile containing 1% TFA to stop the digestion. Peptide degradation was analyzed with RP-HPLC using analytical methods to assess peptide purity (see subsection Synthesis of stapled anoplins). The results were calculated as the percentage of peptide peak of area degradation. The total area of every peak was designated for experiments without trypsin. Each of the experiments was performed thrice.

The next series has as its system E. coli K12 MG1655. The note with it: cation-adjusted MHB, ~5 × 10^5 CFU/ml, 37°C, 19 h + 1 h resazurin, OD600, at least three replicates for peptides, one for antibiotics.
Another series relates to E. coli O157:H7. The note with it: cation-adjusted MHB, ~5 × 10^5 CFU/ml, 37°C, 19 h + 1 h resazurin, OD600, at least three replicates for peptides, one for antibiotics. In general terms: The colour change of resazurin is a common sign of viable cells or microbes.
For the next series, the system named is E. coli 1841/06 ESBL+. The note with it: cation-adjusted MHB, ~5 × 10^5 CFU/ml, 37°C, 19 h + 1 h resazurin, OD600, at least three replicates for peptides, one for antibiotics.
For another series, the system named is E. coli WR 3551/98 ESBL+. Conditions: cation-adjusted MHB, ~5 × 10^5 CFU/ml, 37°C, 19 h + 1 h resazurin, OD600, at least three replicates for peptides, one for antibiotics.
The next series concerns P. aeruginosa PAO1. Conditions: cation-adjusted MHB, ~5 × 10^5 CFU/ml, 37°C, 19 h + 1 h resazurin, OD600, at least three replicates for peptides, one for antibiotics.
A further series concerns P. aeruginosa ATCC 27853. The note with it: cation-adjusted MHB, ~5 × 10^5 CFU/ml, 37°C, 19 h + 1 h resazurin, OD600, at least three replicates for peptides, one for antibiotics.
The next series has as its system S. typhimurium LT2. Conditions: cation-adjusted MHB, ~5 × 10^5 CFU/ml, 37°C, 19 h + 1 h resazurin, OD600, at least three replicates for peptides, one for antibiotics.
The subject of another series is S. aureus ATCC 29213. The note with it: cation-adjusted MHB, ~5 × 10^5 CFU/ml, 37°C, 19 h + 1 h resazurin, OD600, at least three replicates for peptides, one for antibiotics.
Series [2] has as its system S. aureus ATCC BAA1720 MRSA. Conditions: cation-adjusted MHB, ~5 × 10^5 CFU/ml, 37°C, 19 h + 1 h resazurin, OD600, at least three replicates for peptides, one for antibiotics.
Another series concerns B. subtilis 168. Conditions: cation-adjusted MHB, ~5 × 10^5 CFU/ml, 37°C, 19 h + 1 h resazurin, OD600, at least three replicates for peptides, one for antibiotics.
Series [3] relates to HEK 293 cells. Nature of the series: Cytotoxicity assay (MTT). It counts as cell-based, human. Conditions: n = 3. How it is done:
The HEK 293 cells were seeded at a density 2 × 10^4 per well on a 96-well plate and incubated in high glucose DMEM medium (Lonza) supplemented with 10% FBS and 50 U/ml of penicillin–streptomycin at 37°C in 5% CO2. After 24 h, cells were covered with a fresh medium containing tested peptides at different concentrations (4, 8, 16, and 32 μM). After 24 or 48 h of incubation, cells viability was tested using MTT [3-(4,5-dimethylthiazol-2-yl)-2,5-diphenyltetrazolium bromide] (Merck). Briefly, 10 μl of 5 mg/ml MTT was added to each well and incubated for 4 h. Formazan produced from MTT was solubilized during overnight incubation in 100 μl of 10% SDS in 0.01 M HCl. Absorbance at 590 nm was measured using Microplate Reader Biotek (Winooski, VT, United States). The experiment was performed in triplicates.

For the compound `C=CCCC[C@](C)(NC(=O)[C@H](CCCCN)NC(=O)[C@H](CC(C)C)NC(=O)[C@H](CC(C)C)NC(=O)CN)C(=O)N[C@H](C(=O)N[C@@H](CCCCN)C(=O)N[C@H](C(=O)N[C@@](C)(CCCC=C)C(=O)N[C@@H](CC(C)C)C(N)=O)[C@@H](C)O)[C@@H](C)CC` [anoplinS5(5,9)] (H-GLLK[S5]IKT[S5]L-NH2), the Hemolytic activity in the series on sheep red blood cells (4 μM peptide) was determined as 6.7%; in the series on sheep red blood cells (8 μM peptide), 7.2%; in the series with sheep red blood cells (16 μM peptide), 8.9%; in the series on sheep red blood cells (32 μM peptide) it was 11.9%; in the series on sheep red blood cells (64 μM peptide), 14.2%. Also, in the series on HEK 293 cells [1], the morphology of cells result is “altered cell appearance and the presence of cellular debris”. Further, the “stability against trypsin (comparison in words)” value in the series on trypsin was “significantly higher stability against trypsin”; with trypsin (listed as S5(5-9) peptide) it was “highest enzymatic resistance”. The minimal inhibitory concentration (MIC) was 64 µM in the series on E. coli K12 MG1655; 32 µM in the series with E. coli O157:H7; 32 µM in the series on E. coli 1841/06 ESBL+; 64 µM with E. coli WR 3551/98 ESBL+; 64 µM in the series on P. aeruginosa PAO1; at least 64 µM with P. aeruginosa ATCC 27853. The MIC with S. typhimurium LT2 is at least 64 µM; with S. aureus ATCC 29213, 8 µM; in series [2], 8 µM; with B. subtilis 168, 8 µM.

Regarding `CC[C@H](C)[C@@H]1NC(=O)[C@@](C)(NC(=O)[C@H](CCCCN)NC(=O)[C@H](CC(C)C)NC(=O)[C@H](CC(C)C)NC(=O)CN)CCCC=CCCC[C@@](C)(C(=O)N[C@@H](CC(C)C)C(N)=O)NC(=O)[C@H]([C@@H](C)O)NC(=O)[C@H](CCCCN)NC1=O` [anoplin[5-9]] (H-GLLK[S5]IKT[S5]L-NH2; staple 5-9), the Hemolytic activity came out at 6.5% in the series on sheep red blood cells (4 μM peptide); 16.6% in the series on sheep red blood cells (8 μM peptide); 29.8% with sheep red blood cells (16 μM peptide); 43.2% in the series with sheep red blood cells (32 μM peptide, listed as Anoplin[5-9]); 43% with sheep red blood cells (32 μM peptide, listed as anoplin [5-9]); 62.7% in the series on sheep red blood cells (64 μM peptide). Further, in the series on HEK 293 cells [3] (HEK 293, 16 μM peptide), the dead cells result is given as “approximately 60%”. Moreover, the “effect on living cells” value in the series on HEK 293 cells [3] (HEK 293, 32 μM peptide) is reported as “nearly eliminated all living cells”. In the series on HEK 293 cells [1], the morphology of cells entry is “altered cell appearance and the presence of cellular debris”. Further, the “stability against trypsin (comparison in words)” value with trypsin is listed as “significantly higher stability against trypsin”. For the same compound, the MIC in the series with E. coli K12 MG1655 came out at 16 µM; with E. coli O157:H7, 8 µM; in the series with E. coli 1841/06 ESBL+ it was 8 µM; with E. coli WR 3551/98 ESBL+, 16 µM; in the series with P. aeruginosa PAO1, 16 µM; in the series on P. aeruginosa ATCC 27853 it was 32 µM. Also, the minimum inhibitory concentration (MIC) stood at 32 µM in the series on S. typhimurium LT2, 4 µM in the series on S. aureus ATCC 29213, 4 µM in [2] and 4 µM in the series on B. subtilis 168.

With `NC[C@H]1O[C@H](O[C@H]2[C@H](O)[C@@H](O[C@H]3O[C@H](CO)[C@@H](O)[C@H](N)[C@H]3O)[C@H](N)C[C@@H]2N)[C@H](O)[C@@H](O)[C@@H]1O` [kanamycin], the minimal inhibitory concentration (MIC) with E. coli K12 MG1655 is 8 µM; with E. coli O157:H7 it was 2 µM; in the series with E. coli 1841/06 ESBL+, at least 64 µM; in the series on E. coli WR 3551/98 ESBL+ it was at least 64 µM; with P. aeruginosa PAO1 it was at least 64 µM; in the series on P. aeruginosa ATCC 27853, at least 64 µM. Besides, the MIC with S. typhimurium LT2 is at least 64 µM; in the series with S. aureus ATCC 29213, 4 µM; in series [2], at least 64 µM; in the series on B. subtilis 168 it was 0.25 µM.

Take GLLKRIKTLL-NH2 [anoplin]: the Hemolytic activity in the series on sheep red blood cells (4 μM peptide) was 0.5%; in the series on sheep red blood cells (8 μM peptide) it was 1.3%; in the series with sheep red blood cells (16 μM peptide) it was 0.7%; with sheep red blood cells (32 μM peptide) it was 4% and 0.6%; in the series with sheep red blood cells (64 μM peptide) it was 2.3%. For the same compound, the “effect on cell viability compared to untreated control cells” value with HEK 293 cells [3] (HEK 293, 4-32 μM peptide, 24 and 48 h of treatment) is listed as “no significant effect on cell viability”. The morphology of cells entry in the series on HEK 293 cells [1] is recorded as “not altered”. For the same compound, the “time of incubation with trypsin to complete decay of the peptide peak” value in the series on trypsin (600 rpm, sampled at 2, 4, 6, 8 min) was in the range of 4 to 6 min. In addition, the minimal inhibitory concentration (MIC) with E. coli K12 MG1655 was 32 µM; in the series on E. coli O157:H7, 64 µM; with E. coli 1841/06 ESBL+ it was 64 µM; with E. coli WR 3551/98 ESBL+, 64 µM; with P. aeruginosa PAO1 it was 16 µM; with P. aeruginosa ATCC 27853 it was 32 µM. For the same compound, the minimal inhibitory concentration (MIC) in the series with S. typhimurium LT2 was 64 µM; with S. aureus ATCC 29213, at least 64 µM; in series [2] it was at least 64 µM; in the series with B. subtilis 168 it was 16 µM.

For the compound polymyxin B, the MIC was found to be 0.25 µM with E. coli K12 MG1655; 0.5 µM with E. coli O157:H7; 0.25 µM in the series with E. coli 1841/06 ESBL+; 0.5 µM in the series on E. coli WR 3551/98 ESBL+; 0.5 µM in the series on P. aeruginosa PAO1; 0.25 µM in the series on P. aeruginosa ATCC 27853. Moreover, the minimal inhibitory concentration (MIC) was 0.5 µM with S. typhimurium LT2, at least 64 µM with S. aureus ATCC 29213, at least 64 µM in series [2] and 2 µM in the series with B. subtilis 168.

What is called MIC is the lowest concentration found to suppress growth.
